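Each compound was tested at five concentrations against cells in 96-well plates for 48 hours. Here, GI50 denotes the concentration required for 50% inhibition of growth. TGI marks complete inhibition of growth.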
Key:
Assay in all cases: inhibition of tumour cell growth, NCI panel, 48 h
[1] = tested on: 786-0 renal
[2] = tested on: A498 renal
[3] = tested on: A549 NSCLC
[4] = tested on: ACHN renal
[5] = tested on: CAKI-1 renal
[6] = tested on: CCRF-CEM leukemia
[7] = tested on: COLO 205 colon
[8] = tested on: DLD-1 colon
[9] = tested on: DMS 114 small cell lung
[10] = tested on: DMS 273 small cell lung
[11] = tested on: EKVX NSCLC
[12] = tested on: HCC-2998 colon
[13] = tested on: HCT-116 colon
[14] = tested on: HCT-15 colon
[15] = tested on: HL-60(TB) leukemia
[16] = tested on: HOP-62 NSCLC
[17] = tested on: HOP-92 NSCLC
[18] = tested on: HT29 colon
[19] = tested on: IGROV1 ovarian
[20] = tested on: K-562 leukemia
[21] = tested on: KM12 colon
[22] = tested on: KM20L2 colon
[23] = tested on: LOX IMVI melanoma
[24] = tested on: LXFL 529 NSCLC
[25] = tested on: M14 melanoma
[26] = tested on: M19-MEL melanoma
[27] = tested on: MALME-3M melanoma
[28] = tested on: MOLT-4 leukemia
[29] = tested on: NCI-H226 lung
[30] = tested on: NCI-H23 lung
[31] = tested on: NCI-H460 lung
[32] = tested on: NCI-H522 lung
[33] = tested on: OVCAR-3 ovarian
[34] = tested on: OVCAR-4 ovarian
[35] = tested on: OVCAR-5 ovarian
[36] = tested on: OVCAR-8 ovarian
[37] = tested on: RPMI-8226 leukemia
[38] = tested on: RXF 393 renal
[39] = tested on: RXF-631 renal
[40] = tested on: SF-268 CNS
[41] = tested on: SF-295 CNS
[42] = tested on: SF-539 CNS
[43] = tested on: SK-MEL-2 melanoma
[44] = tested on: SK-MEL-28 melanoma
[45] = tested on: SK-MEL-5 melanoma
[46] = tested on: SK-OV-3 ovarian
[47] = tested on: SN12C renal
[48] = tested on: SNB-19 CNS
[49] = tested on: SNB-75 CNS
[50] = tested on: SNB-78 CNS
[51] = tested on: SR leukemia
[52] = tested on: SW-620 colon
[53] = tested on: TK-10 renal
[54] = tested on: U251 CNS
[55] = tested on: UACC-257 melanoma
[56] = tested on: UACC-62 melanoma
[57] = tested on: UO-31 renal
[58] = tested on: XF 498 CNS

With `CCC[CH2][Sn]1([CH2]CCC)[O]CC(CN2CCCCC2)[O]1` (configuration not stated) the GI50 [1] was 291 nM, the TGI [1] was 1010 nM and the GI50 [2] was 276 nM. The TGI [2] was 785 nM, the GI50 [3] was 1990 nM and the TGI [3] was 3810 nM. It also gave a GI50 [4] of 269 nM, a TGI [4] of 808 nM and a GI50 [5] of 51.2 nM. The TGI [5] was 333 nM, the GI50 [6] was 117 nM and the TGI [6] was 600 nM. The GI50 [7] was 273 nM, the TGI [7] was 883 nM and the GI50 [8] was 394 nM. For the same compound, the TGI [8] was 1850 nM, the GI50 [9] was 156 nM and the TGI [9] was 654 nM. It also gave a GI50 [10] of 271 nM, a TGI [10] of 1250 nM and a GI50 [11] of 284 nM. For the same compound, the TGI [11] was 1920 nM, the GI50 [12] was 486 nM and the TGI [12] was 1870 nM. It also gave a GI50 [13] of 892 nM, a TGI [13] of 2130 nM and a GI50 [14] of 460 nM. It also gave a TGI [14] of 1670 nM, a GI50 [15] of 68.3 nM and a TGI [15] of 337 nM. The GI50 [16] was 1610 nM, the TGI [16] was 3050 nM and the GI50 [17] was 193 nM. For the same compound, the TGI [17] was 885 nM, the GI50 [18] was 569 nM and the TGI [18] was 1880 nM. It also gave a GI50 [19] of 1120 nM, a TGI [19] of 2410 nM and a GI50 [20] of 109 nM. For the same compound, the TGI [20] was 744 nM, the GI50 [21] was 634 nM and the TGI [21] was 2100 nM. It also gave a GI50 [22] of 852 nM, a TGI [22] of 2210 nM and a GI50 [23] of 179 nM. The TGI [23] was 485 nM, the GI50 [24] was 76.2 nM and the TGI [24] was 263 nM. For the same compound, the GI50 [25] was 336 nM, the TGI [25] was 1330 nM and the GI50 [26] was 477 nM. For the same compound, the TGI [26] was 1730 nM, the GI50 [27] was 62.8 nM and the TGI [27] was 616 nM. The GI50 [28] was 158 nM, the TGI [28] was 646 nM and the GI50 [29] was 1630 nM. The TGI [29] was 3120 nM, the GI50 [30] was 137 nM and the TGI [30] was 343 nM. For the same compound, the GI50 [31] was 1100 nM, the TGI [31] was 2290 nM and the GI50 [32] was 48.7 nM. For the same compound, the TGI [32] was 176 nM, the GI50 [33] was 271 nM and the TGI [33] was 821 nM. The GI50 [34] was 226 nM, the TGI [34] was 1430 nM and the GI50 [35] was 1530 nM. The TGI [35] was 2860 nM, the GI50 [36] was 283 nM and the TGI [36] was 873 nM. The GI50 [37] was 136 nM, the TGI [37] was 484 nM and the GI50 [38] was 299 nM. The TGI [38] was 542 nM, the GI50 [39] was 124 nM and the TGI [39] was 248 nM. It also gave a GI50 [40] of 295 nM, a TGI [40] of 1340 nM and a GI50 [41] of 309 nM. For the same compound, the TGI [41] was 1320 nM, the GI50 [42] was 391 nM and the TGI [42] was 1500 nM. It also gave a GI50 [43] of 185 nM, a TGI [43] of 422 nM and a GI50 [44] of 685 nM. The TGI [44] was 1930 nM, the GI50 [45] was 582 nM and the TGI [45] was 1910 nM. The GI50 [46] was 1300 nM, the TGI [46] was 2810 nM and the GI50 [47] was 356 nM. The TGI [47] was 1430 nM, the GI50 [48] was 330 nM and the TGI [48] was 948 nM. It also gave a GI50 [49] of 197 nM, a TGI [49] of 731 nM and a GI50 [50] of 266 nM. For the same compound, the TGI [50] was 761 nM, the GI50 [51] was 199 nM and the TGI [51] was 619 nM. It also gave a GI50 [52] of 137 nM, a TGI [52] of 388 nM and a GI50 [53] of 242 nM. For the same compound, the TGI [53] was 897 nM, the GI50 [54] was 285 nM and the TGI [54] was 1110 nM. For the same compound, the GI50 [55] was 309 nM, the TGI [55] was 1050 nM and the GI50 [56] was 301 nM. The TGI [56] was 1300 nM, the GI50 [57] was 954 nM and the TGI [57] was 2140 nM. For the same compound, the GI50 [58] was 121 nM and the TGI [58] was 264 nM.
`CN=c1ssc(/N=C(\SC)N(C)C)[n+]1C` gave a TGI [1] of over 100000 nM, a TGI [3] of over 100000 nM and a TGI [4] of over 100000 nM. For the same compound, the TGI [5] was over 100000 nM, the TGI [6] was over 100000 nM and the TGI [10] was over 100000 nM. The TGI [11] was over 100000 nM, the TGI [12] was over 100000 nM and the TGI [13] was over 100000 nM. It also gave a TGI [14] of over 100000 nM, a TGI [15] of over 100000 nM and a TGI [16] of over 100000 nM. The TGI [17] was over 100000 nM, the TGI [18] was over 100000 nM and the TGI [19] was over 100000 nM. For the same compound, the TGI [20] was over 100000 nM, the TGI [21] was over 100000 nM and the TGI [23] was over 100000 nM. For the same compound, the TGI [24] was over 100000 nM, the TGI [25] was over 100000 nM and the TGI [28] was over 100000 nM. It also gave a TGI [29] of over 100000 nM, a TGI [30] of over 100000 nM and a TGI [31] of over 100000 nM. For the same compound, the TGI [32] was over 100000 nM, the TGI [35] was over 100000 nM and the TGI [36] was over 100000 nM. It also gave a TGI [38] of over 100000 nM, a TGI [39] of over 100000 nM and a TGI [40] of over 100000 nM. It also gave a TGI [41] of over 100000 nM, a TGI [43] of over 100000 nM and a TGI [44] of over 100000 nM. It also gave a TGI [45] of over 100000 nM, a TGI [46] of over 100000 nM and a TGI [47] of over 100000 nM. The TGI [48] was over 100000 nM, the TGI [50] was over 100000 nM and the TGI [51] was over 100000 nM. It also gave a TGI [52] of over 100000 nM, a TGI [53] of over 100000 nM and a TGI [54] of over 100000 nM. It also gave a TGI [55] of over 100000 nM, a TGI [56] of over 100000 nM and a TGI [57] of over 100000 nM. The TGI [58] was over 100000 nM.

— PubChem BioAssay (NCI)
